Source: patent US5583227A, “Antiulcer compounds having a substituted alkynyl or quinoxaline nucleus and methods of making thereof” (Mochida Pharmaceutical Co. Ltd., priority 1994, dated 1996)
Like-named read-outs stand apart in the source and are kept apart here.

Columns and labels:
[1] = biological target: T1, H^+,K^+ adenosine triphosphatase (Sus scrofa, UniProt P19156); experiment: H+,K+ adenosine triphosphatase inhibition (proton pump inhibition); assay type: biochemical, hog
T1 construct: hog stomach was homogenized and subjected to ultracentrifugation to obtain a microsome fraction; from tissue; host or cells: hog stomach, microsome fraction (discontinuous Ficoll gradient)
Method: Proton pump inhibition was evaluated by the H^+,K^+ adenosine triphosphatase (to be referred to as "H^+,K^+ ATPase" hereinafter)inhibition.
That is, hog stomach was homogenized and subjected to ultracentrifugation to obtain a microsome fraction, and the microsomes were subjected to discontinuous density gradient ultracentrifugation using 0 and 9% Ficoll solutions to obtain a fraction containing H^+,K^+ ATPase. The H^+,K^+ ATPase activity was determined by measuring the released inorganic phosphorus using ATP as the substrate and an inorganic phosphorus measuring reagent PiSET(IATRON) manufactured by IATRON.

gastric acid secretion = experiment: Gastric acid secretion inhibition activity (pylorus-ligated, histamine-stimulated rats); assay type: in vivo, Sprague-Dawley (SD) male rats; conditions: Rattus norvegicus; 30 mg/kg oral; pylorus ligated 3 hours later; histamine hydrochloride 30 mg/kg s.c.; total acidity over 3 hours; read-out: Acid secretion inhibition rate (%)
Method: (Test Example 2) Gastric acid secretion inhibition activity
Basically according to the method of Satoh et (Journal of Pharmacology and Experimental Therapeutics, vol.248, pp.806-815, 1988), each of the compounds shown in Examples was orally administered at a dose of 30 mg/kg to Sprague-Dawley (SD) male rats which have been subjected to fasting of 24 hours (free drinking).
After 3 hours of the compound administration, the pylorus of each rat was ligated under urethane anesthesia, and 30 mg of histamine hydrochloride per Kg was administered to the rat by subcutaneous injection. After 3 hours of the ligation, the gastric juice was collected to measure its volume and calculate total acidity (mEqH^+ /3 hours) by sodium hydroxide titration. The inhibition rate (%) was calculated by the following formula in which A represents the total gastric juice acidity of control group rat and B represents the total gastric juice acidity of test compound-administered group rat. [formula]

Pylorus ligation ulcer = experiment: Pylorus ligation ulcer; assay type: in vivo, Wistar male rats; conditions: Rattus norvegicus; oral, 14 hours after pylorus ligation; read-out: Antiulcer activity, Pylorus ligation ulcer, ED50 value
Method: (Test Example 4) Pylorus ligation ulcer
Basically according to the method of Shay et al. (Gastroenterology, vol.5, pp.43-61, 1945), each of the compounds shown in Examples was orally administered to Wistar male rats which have been subjected to fasting of 48 hours (free drinking). After 30 minutes of the compound administration,the pylorus of each rat was ligated.
After 14 hours of standing, the stomach was excised. The length and width of each ulcer developed in the fore-stomach part were measured under a stereoscopic microscope to calculate the ulcer area (length×width). In accordance with the method of Takagi et al. (Japan. J. Pharmacol., vol.24, pp.357-361, 1974), ulcer index was calculated based on the total ulcer area per animal. The dose of each test compound required to inhibit 50% of the ulcer index of the control group was calculated (ED50).

Acute toxicity test = conditions: mouse, in vivo; oral, mice, one week observation
Excerpt: (Test Example 6) Acute toxicity test
Each of the compounds shown in Examples was orally administered to three ICR male mice per group.

Stress ulcer = experiment: Stress ulcer; assay type: in vivo, Wistar male rats; conditions: Rattus norvegicus; oral, 7 hours stress loading in water bath at 23° C.; read-out: Antiulcer activity, Stress ulcer, ED50 value
Method: (Test Example 3) Stress ulcer
Basically according to the method of Takagi et al. (Japanese Journal of Pharmacology (to be referred to as "Japan. J. Pharmacol." hereinafter), vol.18, pp.9-18, each of the compounds shown in Examples was orally administered to Wistar male rats which have been subjected to fasting of 24 hours (free drinking). Each rat was transferred into a stress cage 30 minutes thereafter and subjected to stress loading by suspending the cage in a water bath controlled at 23° C. to such a depth that the rat was soaked up to its breast.
After 7 hours of the stress loading, the rat was recovered from the water bath to excise the stomach. The length (mm) of each ulcer developed in the stomach was measured under a stereoscopic microscope, and the total length of ulcers per one animal was used as an ulcer index. The dose of each test compound required to inhibit 50% of the ulcer index of the control group was calculated (ED50). The results are shown in Table 3, together with the results of the following pylorus ligation ulcer test.

[2] = H+,K+ ATPase fraction from hog stomach microsomes, ATP substrate, released inorganic phosphorus, read-out: Enzyme inhibition IC50 value (converted)

T1 sequence (P19156 2-1034 limits assumed): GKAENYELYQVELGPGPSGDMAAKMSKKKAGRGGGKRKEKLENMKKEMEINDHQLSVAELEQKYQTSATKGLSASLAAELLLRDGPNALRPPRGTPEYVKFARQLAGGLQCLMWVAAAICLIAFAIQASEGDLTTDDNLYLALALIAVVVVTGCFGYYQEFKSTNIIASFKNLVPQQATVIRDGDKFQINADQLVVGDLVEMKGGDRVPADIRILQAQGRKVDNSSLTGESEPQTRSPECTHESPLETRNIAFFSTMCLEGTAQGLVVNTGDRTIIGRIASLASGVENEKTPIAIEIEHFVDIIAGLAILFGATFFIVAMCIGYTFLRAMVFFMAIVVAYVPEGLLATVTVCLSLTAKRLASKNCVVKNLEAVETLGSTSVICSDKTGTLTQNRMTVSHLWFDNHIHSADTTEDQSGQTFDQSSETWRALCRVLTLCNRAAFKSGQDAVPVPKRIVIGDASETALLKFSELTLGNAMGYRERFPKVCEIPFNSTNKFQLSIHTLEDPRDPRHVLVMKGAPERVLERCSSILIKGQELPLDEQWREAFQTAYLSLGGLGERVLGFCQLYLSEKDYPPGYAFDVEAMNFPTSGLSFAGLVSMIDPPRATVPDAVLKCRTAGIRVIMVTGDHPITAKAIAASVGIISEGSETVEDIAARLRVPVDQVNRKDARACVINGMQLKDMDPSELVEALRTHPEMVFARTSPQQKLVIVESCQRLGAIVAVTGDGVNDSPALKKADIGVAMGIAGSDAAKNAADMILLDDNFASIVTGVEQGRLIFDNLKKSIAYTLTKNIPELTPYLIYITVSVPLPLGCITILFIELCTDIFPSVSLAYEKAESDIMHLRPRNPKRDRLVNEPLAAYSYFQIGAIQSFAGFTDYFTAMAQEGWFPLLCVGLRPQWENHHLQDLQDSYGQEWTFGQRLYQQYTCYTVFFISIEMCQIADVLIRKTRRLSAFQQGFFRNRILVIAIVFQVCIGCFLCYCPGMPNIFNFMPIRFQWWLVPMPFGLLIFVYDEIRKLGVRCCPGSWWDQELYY
T1 sequence (P18434 whole entry partner): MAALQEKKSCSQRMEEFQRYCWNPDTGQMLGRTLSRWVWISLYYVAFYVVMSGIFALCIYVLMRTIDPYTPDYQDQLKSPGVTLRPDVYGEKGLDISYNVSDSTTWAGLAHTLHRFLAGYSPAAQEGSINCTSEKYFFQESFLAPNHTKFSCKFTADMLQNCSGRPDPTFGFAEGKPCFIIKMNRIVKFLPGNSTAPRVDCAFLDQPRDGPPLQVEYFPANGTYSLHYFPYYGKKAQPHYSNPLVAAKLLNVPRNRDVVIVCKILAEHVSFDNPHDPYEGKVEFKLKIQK

IC50 [1, 2] [µM] | SMILES | inhibition in vivo at 30 mg/kg (gastric acid secretion) [%] | further results
– | COCCCC#Cc1nc(C(=O)OC)c(C(=O)OC)nc1C#CCCCOC [Example 2, 5,6-bis(5-methoxy-1-pentynyl)pyrazine-2,3-dicarboxylic acid dimethyl ester] | 66 | ED50 (Stress ulcer): 60 mg/kg; ED50 (Pylorus ligation ulcer): 66 mg/kg; LD50 at 168 h (Acute toxicity test): > 1000 mg/kg
– | CCCOCC#Cc1nc(C(=O)O)c(C(=O)O)nc1C#CCOCCC [Example 5, 5,6-bis(3-n-propoxy-1-propynyl)pyrazine-2,3-dicarboxylic acid] | 61 | –
31.4 | CCOC(C)(C)C#Cc1nc2ccccc2nc1C#CC(C)(C)OCC [Example 13, 2,3-bis(3-ethoxy-3-methyl-1-butynyl)quinoxaline] | – | –
124 | CC[C@@H](C#Cc1nc2ccccc2nc1C#C[C@H](CC)OCCOC)OCCOC [Example 18, 2,3-bis((S)-3-(2-methoxyethoxy)-1-pentynyl)quinoxaline] | – | –
– | CC[C@H](C#Cc1nc2ccccc2nc1C#C[C@@H](CC)OCCOC)OCCOC [Example 19, 2,3-bis((R)-3-(2-methoxyethoxy)-1-pentynyl)quinoxaline] | 28 | –
102 | CC[C@@H](C#Cc1nc2ccccc2nc1C#C[C@@H](CC)OCCOC)OCCOC [Example 21, 2-((R)-3-(2-methoxyethoxy)-1-pentynyl)-3-((S)-3-(2-methoxyethoxy)-1-pentynyl)quinoxaline] | – | –
29.6 | CCOCCO[C@H](C#Cc1nc2ccccc2nc1C#C[C@H](CC)OCCOCC)CC [Example 22, 2,3-bis((S)-3-(2-ethoxyethoxy)-1-pentynyl)quinoxaline] | – | –
54.7 | CCOCCO[C@@H](C#Cc1nc2ccccc2nc1C#C[C@@H](CC)OCCOCC)CC [Example 23, 2,3-bis((R)-3-(2-ethoxyethoxy)-1-pentynyl)quinoxaline] | – | –
34.2 | CCOCCO[C@H](C#Cc1nc2ccccc2nc1C#C[C@@H](CC)OCCOCC)CC [Example 25, 2-((R)-3-(2-ethoxyethoxy)-1-pentynyl)-3-((S)-3-(2-ethoxyethoxy)-1-pentynyl)quinoxaline] | – | –
32 | COC1(C#Cc2nc3ccccc3nc2C#CC2(OC)CCCC2)CCCC1 [Example 26, 2,3-bis(2-(1-methoxycyclopentyl)ethynyl)quinoxaline] | – | –
215 | CCOC(C)C#Cc1nc2ccccc2nc1Cl (stereo not shown) [Example 29, 2-chloro-3-(3-ethoxy-1-butynyl)quinoxaline] | – | –
– | COCCOCC#Cc1nc2ccccc2nc1C(C)(C)C [Example 30, 2-t-butyl-3-(3-(2-methoxyethoxy)-1-propynyl)quinoxaline] | – | IC50 [1]: 60.3 µM
9.88 | CCOC(C)C#Cc1nc2ccc(C(C)=O)cc2nc1C#CC(C)OCC (stereo not shown) [Example 33, 6-acetyl-2,3-bis(3-ethoxy-1-butynyl)quinoxaline] | 23 | –
5.27 | COC(=O)c1nc(C#CC(C)OC)c(C#CC(C)OC)nc1C(=O)OC (stereo not shown) [Example 53] | – | –
13.4 | COCCOC(C)C#Cc1nc(C(=O)OC)c(C(=O)OC)nc1C#CC(C)OCCOC (stereo not shown) [Example 56] | 80 | ED50 (Stress ulcer): 12 mg/kg; ED50 (Pylorus ligation ulcer): 17 mg/kg
5.15 | CCC#Cc1nc(C(=O)OC)c(C(=O)OC)nc1C#CC(C)OC (stereo not shown) [Example 62] | 69 | –
– | CCOC(=O)c1nc(C#CCOC)c(C#CCOC)nc1C(=O)OCC [Example 69] | 70 | –
1.7 | COC(C)C#Cc1nc(C#N)c(C#N)nc1C#CC(C)OC (stereo not shown) [Example 73] | – | –
1.44 | CCCC#Cc1nc(C#N)c(C#N)nc1C#CCCOC [Example 77] | 55 | –
– | CCCC#Cc1nc(C#N)c(C#N)nc1C#CCOC [Example 81] | 61 | IC50 [1]: 1.51 µM; ED50 (Stress ulcer): 42 mg/kg; ED50 (Pylorus ligation ulcer): 5.2 mg/kg; LD50 at 168 h (Acute toxicity test): > 1000 mg/kg

IC50 [1, 2] [µM] | SMILES | inhibition in vivo at 30 mg/kg (gastric acid secretion) [%] | further results
0.344 | CCCCC#Cc1nc(C#N)c(C#N)nc1C#CCCCC [Example 89] | – | –
0.613 | CSCCC#Cc1nc(C#N)c(C#N)nc1C#CCCSC [Example 95] | – | –
– | CCCCC#Cc1nc(C#N)c(C#N)nc1C(=O)OCC [Example 101] | – | IC50 [1]: 5.31 µM
– | CCCCC#Cc1nc(C#N)c(C#N)nc1C(F)(F)F [Example 102] | – | IC50 [1]: 3.95 µM
– | COCC#Cc1nc2ccccc2nc1C#CCOC [Example 107] | – | ED50 (Stress ulcer): 29 mg/kg; ED50 (Pylorus ligation ulcer): 30 mg/kg
– | CCOCC#Cc1nc2ccccc2nc1C#CCOCC [Example 108] | – | LD50 at 168 h (Acute toxicity test): > 1000 mg/kg
9.17 | COC(C)C#Cc1nc2ccccc2nc1C#CC(C)OC (stereo not shown) [Example 111] | – | –
– | CCOCCOC(C)C#Cc1nc2ccccc2nc1C#CC(C)OCCOCC (stereo not shown) [Example 113] | – | LD50 at 168 h (Acute toxicity test): > 1000 mg/kg
– | CCOC(C#Cc1nc2ccccc2nc1C#CC(CC)OCC)CC (stereo not shown) [Example 115] | – | LD50 at 168 h (Acute toxicity test): > 1000 mg/kg
87.9 | CCC(C#Cc1nc2ccccc2nc1C#CC(CC)OCCC(=O)OC)OCCC(=O)OC (stereo not shown) [Example 123] | – | –
326 | CCC(C#Cc1cnc2ccccc2n1)OCCOC (stereo not shown) [Example 127] | – | –
25.3 | CCOC(C)C#Cc1nc2ccc(OC)cc2nc1C#CC(C)OCC (stereo not shown) [Example 129] | – | –
20.8 | COCCOCC#Cc1nc2ccc(OC)cc2nc1C#CCOCCOC [Example 133] | 44 | –
34 | CCOC(C)C#Cc1nc2cccc(OC)c2nc1C#CC(C)OCC (stereo not shown) [Example 140] | – | –
28.3 | CCC(C#Cc1nc2cccc(C)c2nc1C#CC(CC)OCCOC)OCCOC (stereo not shown) [Example 144] | – | –
25.1 | CCOC(C)C#Cc1nc2cc(OC)c(OC)cc2nc1C#CC(C)OCC (stereo not shown) [Example 145] | – | –
18.6 | CCOCCOC(C#Cc1nc2ccc(CO)cc2nc1C#CC(CC)OCCOCC)CC (stereo not shown) [Example 151] | – | –
17.1 | CCCOCCOC(C)(C)C#Cc1nc2ccccc2nc1C#CC(C)(C)OCCOCCC [Example 158, 2,3-bis(3-(2-n-propoxyethoxy)-3-methyl-1-butynyl)quinoxaline] | – | –
16.7 | CCOCCOC(C)(C)C#Cc1nc2ccc(Cl)cc2nc1C#CC(C)(C)OCCOCC [Example 159, 6-chloro-2,3-bis(3-(2-ethoxyethoxy)-3-methyl-1-butynyl)quinoxaline] | – | –

SMILES | IC50 [1, 2] [µM] | inhibition in vivo at 30 mg/kg (gastric acid secretion) [%] | further results
CCCOCC#Cc1nc(C(=O)OC)c(C(=O)OC)nc1C#CCOCCC [Example 1, 5,6-bis(3-n-propoxy-1-propynyl)pyrazine-2,3-dicarboxylic acid dimethyl ester] | 87.5 | 50 | ED50 (Pylorus ligation ulcer): 28 mg/kg; LD50 at 168 h (Acute toxicity test): > 1000 mg/kg
COCCC#Cc1nc2ccccc2nc1C#CCCOC [Example 12, 2,3-bis(4-methoxy-1-butynyl)quinoxaline] | 279 | 41 | ED50 (Stress ulcer): 24 mg/kg; LD50 at 168 h (Acute toxicity test): > 1000 mg/kg
COC(=O)c1nc(C#CC(OC)OC)c(C#CC(OC)OC)nc1C(=O)OC [Example 59] | 8.92 | 79 | ED50 (Stress ulcer): 18 mg/kg; ED50 (Pylorus ligation ulcer): 21 mg/kg; LD50 at 168 h (Acute toxicity test): > 1000 mg/kg
